Test results taken from patent US10174072B2, “Antileishmanial compositions and methods of use” (Ohio State Innovation Foundation, priority 2011, dated 2019).
Entries after “also recorded” stand apart in the source; their conditions may differ. Where two headings read alike, the source gives them in different places.

Experiments:
[1] = test system: promastigotes of L. mexicana; assay: Promastigote assay (L. mexicana, flow cytometry with propidium iodide); assay type: cell-based, Leishmania mexicana; conditions: for antileishmanial activity against promastigotes (in words): 48 h exposure; for IC50: Leishmania mexicana, 48 h, linear regression from 1, 10, 50 and 100 μg/mL
Protocol: Leishmania mexicana (MNYC/BZ/62/M379) was maintained by serial passage of amastigotes inoculated subcutaneously into the shaven rumps of 129SvE mice and was obtained by in vitro culture of amastigotes in RPMI-1640 supplemented with 10% fetal calf serum (FCS, Sigma-Aldrich Corporation, St. Louis, Mo.) and incubated at 28° C. All work including experimental animals was approved by the Institutional Animal Care and Use Committee (IACUC) of The Ohio State University.
One million log phase promastigotes of L. mexicana were seeded in 1 mL of complete RPMI-1640 medium, and parasite numbers, and their mobility and morphology were measured from 24 and 48 h. This was performed by flow cytometry measurements using experimental and control groups of parasites stained with propidium iodide and with Quillaja saponaria saponin as positive control, as reported in the literature. The test compounds isolated from P. andrieuxii were compared with a positive control: sodium stibogluconate, a pentavalent antimonial drug.

[2] = test system: intracellular parasites (L. mexicana amastigotes); assay: Electron microscopy of treated intracellular parasites; assay type: cell-based, Leishmania mexicana; conditions: 100 μM, 2 h
Protocol: Intracellular parasites were co-cultured, as previously described herein, by treating a 100 μM concentration of each pure compound for 2 h and suspending them in glutaraldehyde. Samples were further processed in an electron microscopy unit as follows: Incubation steps were carried out on a Lab-Line orbital shaker operating at 700 rpm (Barnstead/Thermolyne, Melrose Park, Ill.). After the initial fixation in 3% buffered glutaraldehyde, cell pellets were washed twice with sodium cacodylate buffer (pH 7.4, 10 minutes each) and spun down after each wash at 1500 rpm for 5 min. Cell samples were then post-fixed in 1% osmium tetroxide in sym-collidine buffer (pH 7.6) for 1 h at room temperature. Following two washes with sym-collidine buffer (10 min each) the cell pellet was stained with a saturated aqueous uranyl acetate solution (pH 3.3) for 1 h. Cell pellets were dehydrated in a graded EtOH series up to absolute (10 min each). Acetone was used as the transitional solvent, two changes for 10 min each. The cell suspensions were infiltrated overnight with a 1:1 mixture of acetone and Spurr's epoxy resin (Electron Microscopy Sciences, Fort Washington, Pa.). Finally, cell pellets were placed into BEEM™ embedding capsules containing 100% Spurr's resin. Polymerization of epoxy blocks was carried out at 70° C. overnight. Polymerized blocks were sectioned with a Leica Ultraut UCT ultramicrotome (Leica Microsystem GmbH, Wein, Austria). Methylene Blue-Basic Fuschin stained semi-thin (750 nm) sections were evaluated and two representative areas were thin-sectioned for ultrastructural examination. Ultrathin (80 nm) sections were collected on 200 mesh copper grids (Electron Microscopy Sciences) and post-stained with lead citrate (3 min).

[3] = test system: L. mexicana amastigotes in bone marrow-derived macrophages; assay: Amastigote assay in infected bone marrow-derived macrophages; assay type: cell-based, Leishmania mexicana; conditions: for IC50: Leishmania mexicana, BMDM, in Mus musculus, 48 h, read-out: Amastigote IC50, 48 hours, infected BMDM from C57BL/6 mice; for antileishmanial activity against the amastigote stage (in words): 48 h treatment
Text: Bone marrow derived macrophages were obtained from C57BL/6 mice. Bone marrow-derived macrophages (BMDM) (0.5×10^6) were adhered on top of glass rounded coverslips deposited at the bottom of individual plate's well (24 well tissue culture plate, Corning, Inc.). Next, macrophages were infected overnight with 2.5×10^6 stationary phase promastigotes of the L. mexicana (ratio 5:1). After this period, cells were extensively washed with Hank's balanced salt solution (HBSS) to eliminate non-phagocytosed parasites, and, after treatment with test compounds for 48 hours, cells were stained with Giemsa stain (Sigma). In each experiment, infection rates were recorded by counting the number of parasites in 100 macrophages on each slide in triplicate in a blinded fashion.

[4] = test system: splenocytes stimulated with L. donovani antigen; assay: Splenocyte T cell proliferation (Alamar blue) and cytokine ELISA after L. donovani antigen stimulation; assay type: in vivo, BALB/c mice; conditions: liposomal preparation
Protocol: One week after the treatment, the mice were euthanized and parasite loads in the liver and spleen were determined. Parasite loads in the spleen and liver were quantified as previously described (Murray, H. W. 2000. Infect Immun. 68: 6294-6299). Briefly, the liver and spleen impression smears were stained using Giemsa and parasite loads we quantified microscopically. LDU is determined by the number of amastigotes per 1000 nuclei multiplied by the weight (gm) of the liver or spleen. At this time, spleen cell suspensions were prepared and these cells were stimulated in vitro with 20 microgram/ml of Leishmania donovani antigen for 48-72 hrs to stimulate lymphocyte release. Proliferation of spleen cells were determined by Alamar blue assays and levels of cytokines including IFN-gamma in supernatant were quantified by ELISA using commercially available reagents from Biolegend and BD Biosciences.
T cell proliferation was determined as previously described (Rosas, L. E., et al., 2006. Am. J. Pathol. 168: 158-169.). Briefly, 5×10^5 cells were added in quadruplicate to the wells of sterile 96-well, flat-bottom tissue culture plates and stimulated with freeze-thawed L. donovani Ag (20 μg/ml). The proliferation responses were measured by Alamar blue assay (Ansar-Ahmed, A., et al., 1994. J. Immunol. Methods 170: 211-214.). Supernatants were collected after 72 hours of incubation at 37° C. and analyzed for the production of IFN-γ and IL-10 by standard ELISA methods (BD Pharmingen, Inc., San Diego, Calif.).

[5] = test system: Leishmania donovani (Strain LV9); assay: In vivo activity of liposomal preparation of compound 1, parasite loads in liver and spleen; set-up: species or system BALB/c mice; conditions: 46.1 μg compound 1, tail vein, one week after treatment
Protocol: Liposomes were made by rehydration of a lipid cake. First, hydrogenated soy phosphatidylcholine (Avanti Polar Lipids, Inc., Alabaster, Ala.), cholesterol (Avanti Polar Lipids), 1,2-distearoyl-sn-glycero-3-[phospho-rac-(1-glycerol)] (“DSPG”; Avanti Polar Lipids,), and α-tocopherol (Sigma-Aldrich Corporation, St. Louis, Mo.) were dissolved in a chloroform and methanol (9:1, v/v). Compound 1 was dissolved in the lipid solution at a weight ratio of compound 1 to lipid of 1:9 (i.e. for clarity, the solution comprised 10% by weight of compound 1 and 90% by weight of the lipid solution). The solution was placed on at rotary evaporator for about 30 minutes and the liquid was completely evaporated. The lipids were reconstituted into liposomes in deionized water (3 mL) for 30 minutes in a 60° C. water bath, followed by 3 freeze-thaw cycles. […] Loading of liposomes was verified and quantified by HPLC. […]
One week after the treatment, the mice were euthanized and parasite loads in the liver and spleen were determined. Parasite loads in the spleen and liver were quantified as previously described (Murray, H. W. 2000. Infect Immun. 68: 6294-6299). Briefly, the liver and spleen impression smears were stained using Giemsa and parasite loads we quantified microscopically. LDU is determined by the number of amastigotes per 1000 nuclei multiplied by the weight (gm) of the liver or spleen. […]

[6] = 48 hours in culture, read-out: Promastigote IC50

C=C(CCC=C(C)C)[C@H]1CC[C@H]2[C@@H]3CCC4=CC(=O)CC[C@]4(C)[C@H]3CCC12C (stereo in doubt) [Compound 1, (8S,9S,10R,13R,14S,17R)-cholest-4,20,24-trien-3-one]
activity relative to cholest-4-en-3-one (4), promastigote bioassay [1]: almost three times more active | antileishmanial activity against promastigotes (in words) [1]: significant leishmanicidal activity; also recorded: inhibitory effects | IC50 [1, 6]: 30 µM | electron microscopy findings in intracellular parasites [2]: morphological abnormalities and destruction of the amastigotes | IC50 [3]: 3.3 µM | levels of IL-10 secreted from splenocytes ([4]; Leishmanial antigen stimulation): no significant change | secretion of IFN-γ from splenocytes ([4]; Leishmanial antigen stimulation, P value<0.01): significant increase | T cell proliferation of splenocytes upon Leishmanial antigen stimulation ([4]; vs group without compound 1, P value<0.0001): significant increase | parasite load in hepatic cells [5]: decreased parasite load | parasite load in splenic cells [5]: decreased parasite load

C=C(CC[C@@H](C)[C@H]1CC[C@H]2[C@@H]3CCC4=CC(=O)CC[C@]4(C)[C@H]3CC[C@]12C)C(C)C [Compound 3, 24-methylcholesta-4,24(28)-dien-3-one]
antileishmanial activity against promastigotes (in words) [1]: significant leishmanicidal activity; also recorded: inhibitory effects | IC50 [1, 6]: 24 µM | electron microscopy findings in intracellular parasites [2]: morphological abnormalities and destruction of the amastigotes | IC50 [3]: 3.5 µM

CC(C)CCC[C@@H](C)[C@H]1CC[C@H]2[C@@H]3CCC4=CC(=O)CC[C@]4(C)[C@H]3CC[C@]12C [Compound 4, cholest-4-en-3-one]
antileishmanial activity against promastigotes (in words) [1]: inhibitory effects | IC50 [1, 6]: 81 µM | electron microscopy findings in intracellular parasites [2]: morphological abnormalities and destruction of the amastigotes | IC50 [3]: 0.03 µM | potency relative to pentostam, amastigote stage ([3]; ratio of IC50 values): ~100 times

CC[C@H](/C=C/[C@@H](C)[C@H]1CC[C@H]2[C@@H]3CCC4=CC(=O)CC[C@]4(C)[C@H]3CC[C@]12C)C(C)C [Compound 5, stigmast-4,22-dien-3-one]
antileishmanial activity against promastigotes (in words) [1]: inactive | antileishmanial activity against the amastigote stage (in words) [3]: inactive

CC[C@H](CC[C@@H](C)[C@H]1CC[C@H]2[C@@H]3CCC4=CC(=O)CC[C@]4(C)[C@H]3CC[C@]12C)C(C)C [Compound 6, stigmast-4-en-3-one]
antileishmanial activity against promastigotes (in words) [1]: inactive | antileishmanial activity against the amastigote stage (in words) [3]: inactive

C=C(CCC=C(C)C)[C@H]1CC[C@H]2[C@@H]3CC=C4C[C@@H](O)CC[C@]4(C)[C@H]3CC[C@]12C [Compound 7, cholest-5,20,24-trien-3β-ol]
antileishmanial activity against promastigotes (in words) [1]: inactive | IC50 [1, 6]: > 262 µM | antileishmanial activity against the amastigote stage (in words) [3]: significant activity; also recorded: active | IC50 [3]: 14.5 µM

CC(=O)C1=CC[C@H]2[C@@H]3CCC4=CC(=O)CC[C@]4(C)[C@H]3C[C@@H](O)[C@]12C [Compound 15, 6,7-dihydroneridienone]
antileishmanial activity against promastigotes (in words) [1]: potent; also recorded: inhibitory effects | electron microscopy findings in intracellular parasites [2]: morphological abnormalities and destruction of the amastigotes

CC(=O)C1=CC[C@H]2[C@@H]3C=CC4=CC(=O)CC[C@]4(C)[C@H]3C[C@@H](O)[C@]12C [Compound 16, neridienone]
antileishmanial activity against promastigotes (in words) [1]: significant leishmanicidal activity; also recorded: inhibitory effects | IC50 ([1]; read-out: Promastigote IC50, 48 hours in culture): 9.2 µM | electron microscopy findings in intracellular parasites [2]: morphological abnormalities and destruction of the amastigotes
